PMC3498381, “Isolated Toll-like Receptor Transmembrane Domains Are Capable of Oligomerization” (PLoS ONE, 2012)
No end group written: not given here.

Tests used:
[1] = test system: GpA TMD (functional ToxR chimera); assay: Dominant-negative (heterotypic) ToxR assay, GpA as dominant phenotype; format: cell-based; conditions: Miller units normalized to poly-Leu* = 1 and corrected for expression, lower = stronger interaction, N in table
Description: (§1) Next, we investigated heterotypic interactions of the TLRs. We specifically studied TLR2, TLR1, and TLR6 because they are cell surface expressed receptors known to form functional heterodimers. To determine the ability of these three cell surface TLRs to have heterotypic interactions within its family, we studied the ability of the TLR1, TLR2, and TLR6 TMDs to interact with the TLR receptors also expressed at the cell surface; namely, TLR1, TLR2, TLR4, TLR5, TLR6, and TLR10. We monitored these interactions using a dominant-negative ToxR assay (Fig. S1B) which works by having a second TMD expressed with a non-functional ToxR* intracellular domain. This ToxR* domain is incapable of binding the ctx promoter making any interactions with this second expressed TMD unable to produce the reporter enzyme. As such, any interaction between the functional ToxR and non-functional ToxR* TMDs will result in a reduction in signal output.
(§2) Figure 3 Cell- Surface Toll-like Recptor Heterotypic Interactions. (A) A dominant-negative ToxR assay was used to study heterotypic interactions of the cell-surface TLRs. Two TLR TMDs were encoded in the FHK12 E.coli reporter strain, one with a functional ToxR domain (dominant phenotype) and one with a nonfunctional ToxR* domain (negative phenotype). Interaction between the two different TMDs leads to a reduction in signal from that seen for homotypic interactions. The TMDs for GpA, TLR1, TLR2, and TLR6 were used with the functional ToxR domain while TMDs for poly-Leucine, TMD5, integrin αIIb, TLR1, TLR2, TLR4, TLR5, TLR6, and TLR10 were used with the nonfunctional ToxR* domain. Interactions were most prominent for the TLRs known to have heterotypic interactions – TLR2-TLR1 and TLR2-TLR6. […] We also saw interaction with the same TMD further validating the homotypic interactions. […] Each dominant phenotype was done in 3 technical replicates with each negative phenotype and >6 measurements made for each replicate. Error bars depict the standard error of the mean (n- Tables S3, S5, S7, S9). Western blots staining for MBP were performed to monitor expression levels of the constructs with the upper band being functional ToxR chimeras and the lower band being nonfunctional ToxR* chimeras – (B) GpA, (C) TLR1, (D) TLR2, and (E) TLR6. Significant differences for the same dominant phenotype were determined by use of the Tukey-Kramer test.
(§3) For heterotypic interactions one plasmid containing a functional ToxR domain (200 ng) and a second plasmid containing a non-functional ToxR* domain (200 ng) were co-transformed into chemically competent FHK12 E. coli (400 µL) by incubating on ice for 30 min, heat shock at 42°C for 90 s, incubation on ice for 2 min, and addition of SOC media (1600 µL) followed by incubation with shaking for 1 h at 37°C. This transformation mixture (50 µL) was then used to spread LB-agar plates containing cholaramphenicol (30 µg/mL), kanamycin (33 µg/mL), and ampicillin (100 µg/mL) and grown overnight at 37°C. Single colonies were selected from the plates and grown in 5 mL LB media containing cholaramphenicol (30 µg/mL), kanamycin (33 µg/mL), ampicillin (100 µg/mL), and arabinose (0.0025%) overnight (16–20 h) with shaking at 37°C. Analysis of activity was monitored as described in homotypic ToxR assays. Western blotting was done in the same manner as the homotypic ToxR assay with one band appearing for the functional ToxR construct and a second band for the nonfunctional ToxR* construct. Data were normalized to poly-Leu* Miller Units and corrected for varying protein expression levels using ImageJ (NIH) as previously reported.

[2] = test system: TLR2 TMD (functional ToxR chimera); assay: Dominant-negative (heterotypic) ToxR assay, TLR2 as dominant phenotype; format: cell-based; conditions: Miller units normalized to poly-Leu* = 1 and corrected for expression, lower = stronger interaction, N in table
Description: as §1, §2, §3

[3] = test system: TLR1 TMD (functional ToxR chimera); assay: Dominant-negative (heterotypic) ToxR assay, TLR1 as dominant phenotype; format: cell-based; conditions: Miller units normalized to poly-Leu* = 1 and corrected for expression, lower = stronger interaction, N in table
Description: as §1, §2, §3

[4] = test system: TLR6 TMD (functional ToxR chimera); assay: Dominant-negative (heterotypic) ToxR assay, TLR6 as dominant phenotype; format: cell-based, E. coli; conditions: Miller units normalized to poly-Leu* = 1 and corrected for expression, lower = stronger interaction, N in table
Description: as §1, §2, §3

[5] = test system: homotypic TMD-TMD interaction (ToxR / ctx promoter / β-galactosidase reporter in FHK12 E. coli); assay: Homotypic ToxR reporter assay (β-galactosidase); format: cell-based; conditions: for Mean homotypic TMD interaction (ToxR): β-galactosidase Miller units normalized to GpA signal and expression levels, FHK12 E. coli, 3 replicates with >6 measurements each, N in table
Protocol: . Various plasmid constructs for this assay make it possible to monitor both homotypic and heterotypic interactions that are driven by TMD-TMD association (Fig. S1).
We first investigated homotypic interactions because the majority of the TLR family members function as homodimers. […] This ΔTM construct consists of the same maltose binding protein and ToxR domain, but lacks a TMD for proper membrane insertion (Fig. S2). Statistical analysis using the Tukey-Kramer test was performed to analyze any significant differences between all possible pairs of average interaction potentials (Table S2). […] Among the TLRs, no discernable differences in grouping based on statistical analysis at p = 0.05 were indicated as all receptors belonged to multiple groups, except for TLR1, which with the lowest interaction potential among the family of receptors only existed in one group (Table S1).
Figure 2 Toll-like Receptor Transmembrane Domain Homotypic Interactions. (A) The ToxR assay was used to study homotypic interactions of the TLR TMDs. A chimeric protein expressing the TMD of interest was monitored through β-galactosidase activity. In all cases, we saw that the TLRs have interaction potential solely from TMD-TMD interactions. Each TLR TMD interaction measurement analysis was performed on 3 technical replicates with >6 measurements for each replicate. Error bars depict the standard error of the mean (n – Table S1). Western blots staining for MBP were performed to monitor expression levels of the constructs – (B) chimeric maltose binding protein expression, (C) endogenous maltose binding protein expression. All samples were normalized to the GpA signal and expression levels.
Briefly, the ToxR plasmids containing the TMD of interest (200 ng) were transformed into chemically competent FHK12 E. coli (200 µL) by incubating on ice for 30 min, heat shock at 42°C for 90 s, incubation on ice for 2 min, and addition of SOC media (800 µL) followed by incubation with shaking for 1 h at 37°C. This transformation mixture (50 µL) was then spread on LB agar plates containing cholaramphenicol (30 µg/mL) and ampicillin (100 µg/mL) and grown overnight at 37°C. Single colonies were selected from the plates in triplicate and added to 5 mL of LB media containing cholaramphenicol (30 µg/mL), ampicillin (100 µg/mL), and arabinose (0.0025%). These cultures were incubated overnight (16–20 h) with shaking at 37°C. The β-galactosidase activity was monitored using a Beckman Coulter DTX 880 plate-reader. First 5 µL of each culture was plated >6 times in a clear 96-well flat bottom culture plate (Sarstedt) containing 100 µL of Z-buffer/chloroform (1% β-mercaptoethanol, 10% chloroform, 89% Z buffer: […], 10 mM potassium chloride, 1 mM magnesium sulfate, pH 7.0). The cell densities of each well were recorded by measuring the OD595. Bacteria were lysed by the addition of 50 µL Z-buffer/SDS (1.6% sodium dodecyl sulfate w/v in Z-buffer) and shaking at 28°C for 10 min. Enzymatic activity was measured by adding 50 µL of Z-buffer/ortho-Nitrophenyl-β-[…] (ONPG) (0.4% ONPG w/v in Z-buffer) and monitoring the reaction at 405 nm for a period of 20 min at 30 s intervals. Miller units were calculated using the equation: [drawing 1]
Western blotting was performed with antiserum recognizing the maltose-binding protein moiety of the constructs (Abcam). Data were normalized to GpA Miller Units and protein expression levels using ImageJ (NIH) as reported previously.

Substance | Mean GpA-TMD* heterotypic interaction (ToxR signal) [1] | Mean TLR2-TMD* heterotypic interaction (ToxR signal) [2] | Mean TLR1-TMD* heterotypic interaction (ToxR signal) [3] | Mean TLR6-TMD* heterotypic interaction (ToxR signal) [4] | Mean homotypic TMD interaction (ToxR) [5] | Effect of TLR2 point mutation on homotypic interaction ([5]; homotypic ToxR assay, compared with wild type TLR2 TMD (Fig. 7A))
GNRASWVLV G VLG G LLLLTILVLAMWGSLIN [Integrin*, Integrin αIIb TMD fused to nonfunctional ToxR* domain, unrelated receptor, reference compound] | 1.0189 | 0.7609 | 0.7583 | 0.6106 |  | 
GNRASLIIF G VMA G VIGTILGSLIN [GpA TMD, reference compound] |  |  |  |  | 1.0000 | 
TLR2 G593V (GNRASALVSVMCCALFLLILLTGVLCGSLIN; cysteine pairing not given here; also: fused to maltose-binding protein and ToxR activation domain, ends not given here) |  |  |  |  |  | no mutation demonstrated significant difference from the wild type TLR2 TMD
TLR10*: TLR10 TMD chimera with nonfunctional ToxR* domain (negative phenotype) (GNRASALLIVTIVVIMLVLGLAVAFCCLGSLIN; cysteine pairing not given here; also: fused to non-functional ToxR* (S87H) and maltose binding protein, ends not given here) | 1.1244 | 0.3877 | 0.3608 | 0.3445 | 0.8259 | 
TLR4*: TLR4 TMD chimera with nonfunctional ToxR* domain (negative phenotype) (GNRASTIIGVSVLVVSVVAVLVYKFYFGSLIN; also: fused to non-functional ToxR* (S87H) and maltose binding protein, ends not given here) | 1.1905 | 1.1386 | 0.8709 | 0.9610 | 0.5620 | 
GNRASWQLLAFFLAFFLDLILLIIALYLGSLIN [TMD5*, TMD5 of latent membrane protein 1 fused to nonfunctional ToxR* domain, unrelated receptor, reference compound] | 1.1703 | 1.1904 | 1.0921 | 1.1235 |  | 
TLR5*: TLR5 TMD chimera with nonfunctional ToxR* domain (negative phenotype) (GNRASFSLFIVCTVTLTLFLMTILTVTGSLIN; also: fused to non-functional ToxR* (S87H) and maltose binding protein, ends not given here) | 0.8934 | 0.9233 | 0.6805 |  | 0.6087 | 
GNRASLFFMINTSILLIFIFIVLLIHFGSLIN [TLR3 TMD] |  |  |  |  | 0.8032 | 
GNRASVTAVILFFFTFFITTMVMLAALAGSLIN [TLR8 TMD] |  |  |  |  | 0.7486 | 
GNRASFALSLL A V A L G L G VPMLHHLGSLIN [TLR9 TMD] |  |  |  |  | 0.7992 | 
GNRASLILF S L S I S V S LFLMVMMTASHLGSLIN [TLR7 TMD] |  |  |  |  | 0.4947 | 
